# Measured values: publication PMC5867665, “Targeting Multiple Effector Pathways in Pancreatic Ductal Adenocarcinoma with a G-Quadruplex-Binding Small Molecule” (Journal of Medicinal Chemistry, 2018)
# Key:
# Assay type in all cases: cell-based, human
# [1] = system: PANC-1 cells; test: RNA-seq gene expression, PANC-1; conditions: for 1/2-SBSRNA4 logFC PANC-1 / A1BG logFC PANC-1 / A1BG-AS1 logFC PANC-1 / A2LD1 logFC PANC-1 / A4GALT logFC PANC-1: 300 nM gemcitabine
# Text: (§1) CM03 is a potent G4 ligand, as shown by the FRET and quantitative binding experiments reported here. We therefore reasoned that the potent CM03 antiproliferative activity on PDAC cells could be mediated through a G4-targeting mechanism. To test this hypothesis, we determined whether transcriptome changes upon early CM03 treatment were correlated with G4 presence in promoters and/or gene bodies. […] The time and dose of CM03 treatment were selected to reveal initial but robust mRNA changes while minimizing chronic effects due to cell toxicity. In both cell lines, the number of genes with altered expression (as defined by >0.5 increase in Log 2 of fold change [Log2 FC], or < −0.5 decrease; false discovery rate [FDR] < 0.1) increased with duration of CM03 treatment. In PANC-1 cells 2165 genes at 6 h and 3977 genes at 24 h were seen to change, while in MIA PaCa-2 cells, 5306 genes changed at 6 h and 5477 genes at 24 h compared to untreated controls (Supporting Information, Table 1). […] To validate that the targeting of G4-containing genes is not a general feature of antiproliferative agents, we also examined the effects of the first-line therapeutic agent for PDAC, gemcitabine,[37] a potent antiproliferative DNA synthesis inhibitor whose mechanism of action is G4-independent and which remains a standard therapy option in advanced PDAC. Both cell lines were treated with a range of gemcitabine concentrations (Supporting Information, Figure 4, Table 4) for 6 or 24 h.
# (§2) The PDAC cell lines PANC-1 (ATCC, catalogue no. CRL-1469) and MIA PaCa-2 (ATCC, catalogue no. CRL-142) were maintained in DMEM (ThermoFisher, catalogue no. 11965092) supplemented with 10% (v/v) heat inactivated FBS (ThermoFisher) in a humidified atmosphere containing 5% CO2 at 37 °C. Cell lines were confirmed mycoplasma free by RNA-capture ELISA, and their genotypes were certified by STR profiling.
# (§3) PANC-1 (0.35 × 10^6 cells/well) and MIA PaCa-2 (1.5 × 10^6 cells/well) cell lines were seeded overnight in 60 mm plates. Next day, cells were treated with 400 nM CM03 for 6 and 24 h. For gemcitabine treatment, cells were treated for 6 and 24 h with DMSO or 30 nM, 100 nM, 300 nM, 1 μM, 3 μM, and 10 μM gemcitabine-HCL for PANC-1 cells and 30 nM, 300 nM, and 3 μM gemcitabine-HCl for MIA PaCa-2 cells. Total RNA was extracted using the Qiagen RNeasy Plus Mini Kit (ThermoFisher, catalogue no. 74134) as per the manufacturer’s instructions. RNA quality (RIN > 9.0) was checked with an Aligent 2100 bioanalyzer RNA 6000 Nano Chip, and RNA concentration was quantified using a Qubit fluorometer (ThermoFisher) and Qubit RNA HS Assay Kit (Qiagen, catalogue no. Q32852). RNA-seq libraries were then generated using the Illumina Truseq RNA HT (stranded mRNA) kit (Illumina, catalogue no. RS-122–2103) as per the manufacturer’s instructions and sequenced using an Illumina HiSeq4000.
# (§4) Fastq raw sequencing files were preprocessed using cutadapt[81] to remove sequencing adapters and low quality sequencing tails (options −q 10) and then aligned to the human genome (GRCh37/hg19) using tophat2[82] and using the UCSC gtf file provided by Illumina iGenomes as an annotation file (http://support.illumina.com/sequencing/sequencing_software/igenome.html). Gene counts were calculated using htseq-count[83] and the same gtf file. Differential expression analysis was done using the R package edgeR.[84] Differentially expressed genes were estimated independently for both cell lines (MIA PaCa-2 and PANC-1) and for the different time points (6 and 24 h) and were then intersected to inspect the common genes. The sequencing data is available at the GEO public functional genomics data repository (https://www.ncbi.nlm.nih.gov/geo/) as GSE105083. Details of the putative G4 sequence (PQs) analysis are given in the Supporting Information.
# [2] = system: MIA PaCa-2 and PANC-1 cells; test: RT-qPCR validation of down-regulated genes
# Text: The RNA-seq results are consistent with the hypothesis that G4 ligands can alter gene expression when PQs are targets in individual genes.[23] Previously, global G4-motif specific changes in the transcriptome with bisquinolinium compounds in HeLa cells have been reported using microarray analysis.[48] However, our work represents the first comprehensive analysis using state-of-the-art RNA-seq methodology. […] The observed transcriptional effects of CM03 also align with the hypothesis that down-regulation of gene expression is mediated through ligand-stabilized G4s, causing for example steric hindrance and inhibition of RNA pol II in the transcription bubble (reviewed in ref ([23])). The observations that transcriptional effects are closely aligned in two PDAC cell lines, independently sequenced, gives added confidence to these conclusions.
# MIA PaCa-2 (6 h = 2.5 × 10^6 and 24 h = 1.0 × 10^6 cells/well) and PANC-1 (6 h = 1.0 × 10^6 and 24 h = 0.5 × 10^6 cells/well) cell lines were seeded in 100 mm plates and incubated overnight. […] The concentration of harvested RNA was measured with a NanoDrop 2000/2000c spectrophotometer (ThermoFisher). […] The Ct values were normalized to the genomic mean of three housekeeping genes ACTB, GAPDH, and TUBB, and the fold change was determined using 2^–ΔΔCt.
# [3] = system: MIA PaCa-2 cells; test: RNA-seq gene expression, MIA PaCa-2; conditions: for 1/2-SBSRNA4 logFC MIA PaCa-2 / A1BG logFC MIA PaCa-2 / A1BG-AS1 logFC MIA PaCa-2 / A2LD1 logFC MIA PaCa-2 / A4GALT logFC MIA PaCa-2: 300 nM gemcitabine
# Text: as §1, §2, §3, §4
smiles,measurement,setting,value
"O=C1c2ccc3c4c(c(NCCN5CCCC5)cc(c24)C(=O)N1CCCN1CCOCC1)C(=O)N(CCCN1CCOCC1)C3=O [CM03, 2,7-bis(3-morpholinopropyl)-4-((2-(pyrrolidin-1-yl)ethyl)amino)benzo[lmn][3,8]phenanthroline-1,3,6,8(2H,7H)-tetraone]",number of genes with altered expression,"[1]; 400 nM CM03, 6 h, PANC-1, Log2 FC >0.5 or < −0.5, FDR < 0.1",2165
same,number of genes with altered expression,"[1]; 400 nM CM03, 24 h, PANC-1",3977
same,A1BG Log FC ([6h] vs [Control]) PANC-1,"[1]; RNA-seq, 400 nM CM03, 6 h",-0.2704
same,A1BG-AS1 Log FC ([6h] vs [Control]) PANC-1,"[1]; RNA-seq, 400 nM CM03, 6 h",-1.747
same,A2LD1 Log FC ([6h] vs [Control]) PANC-1,"[1]; RNA-seq, 400 nM CM03, 6 h",-0.1242
same,AAAS Log FC ([6h] vs [Control]) PANC-1,"[1]; RNA-seq, 400 nM CM03, 6 h",-0.01012
same,AACS logFC 6h PANC-1,"[1]; RNA-seq, 400 nM CM03, 6 h",-0.1667
same,A1BG Log FC ([24h] vs [Control]) PANC-1,"[1]; RNA-seq, 400 nM CM03, 24 h",-0.2368
same,A2LD1 Log FC ([24h] vs [Control]) PANC-1,"[1]; RNA-seq, 400 nM CM03, 24 h",-0.09987
same,AAAS Log FC ([24h] vs [Control]) PANC-1,"[1]; RNA-seq, 400 nM CM03, 24 h",-0.5132
same,AACS logFC 24h PANC-1,"[1]; RNA-seq, 400 nM CM03, 24 h",0.00469
same,RT-qPCR expression of a small set of PDAC-pathway genes,"[2]; 400 nM CM03, 6 and 24 h",transcriptionally down-regulated in both cell lines
same,1/2-SBSRNA4 Log FC ([6h] vs [Control]) MIA PaCa-2,"[3]; 400 nM CM03, 6 h",0.2926
same,A1BG Log FC ([6h] vs [Control]) MIA PaCa-2,"[3]; 400 nM CM03, 6 h",0.4876
same,A2LD1 Log FC ([6h] vs [Control]) MIA PaCa-2,"[3]; 400 nM CM03, 6 h",-0.3929
same,AAAS Log FC ([6h] vs [Control]) MIA PaCa-2,"[3]; 400 nM CM03, 6 h",-0.00561
same,AACS LogFC 6h MIA PaCa-2,"[3]; 400 nM CM03, 6 h",0.2527
same,1/2-SBSRNA4 Log FC ([24h] vs [Control]) MIA PaCa-2,"[3]; 400 nM CM03, 24 h",0.1438
same,A1BG Log FC ([24h] vs [Control]) MIA PaCa-2,"[3]; 400 nM CM03, 24 h",-0.4265
same,A2LD1 Log FC ([24h] vs [Control]) MIA PaCa-2,"[3]; 400 nM CM03, 24 h",0.03755
same,A4GALT Log FC ([24h] vs [Control]) MIA PaCa-2,"[3]; 400 nM CM03, 24 h",0.6327
same,AAAS Log FC ([24h] vs [Control]) MIA PaCa-2,"[3]; 400 nM CM03, 24 h",-0.483
same,AACS LogFC 24h MIA PaCa-2,"[3]; 400 nM CM03, 24 h",-0.2395
"Nc1ccn([C@@H]2O[C@H](CO)[C@@H](O)C2(F)F)c(=O)n1 [gemcitabine, reference compound]",1/2-SBSRNA4 logFC PANC-1,"[1]; RNA-seq, 6 h",0.2646
same,A1BG logFC PANC-1,"[1]; RNA-seq, 6 h",-0.08914
same,A1BG-AS1 logFC PANC-1,"[1]; RNA-seq, 6 h",0.1407
same,A2LD1 logFC PANC-1,"[1]; RNA-seq, 6 h",-0.1053
same,A4GALT logFC PANC-1,"[1]; RNA-seq, 6 h",0.005472
same,1/2-SBSRNA4 logFC PANC-1,"[1]; RNA-seq, 24 h",0.6908
same,A1BG logFC PANC-1,"[1]; RNA-seq, 24 h",-0.1465
same,A1BG-AS1 logFC PANC-1,"[1]; RNA-seq, 24 h",1.012
same,A2LD1 logFC PANC-1,"[1]; RNA-seq, 24 h",-0.7315
same,A4GALT logFC PANC-1,"[1]; RNA-seq, 24 h",0.6241
same,RT-qPCR expression of a small set of PDAC-pathway genes,"[2]; 400 nM gemcitabine, 6 and 24 h",not significantly affected
same,1/2-SBSRNA4 logFC MIA PaCa-2,[3]; 6 h,-0.2087
same,A1BG logFC MIA PaCa-2,[3]; 6 h,0.04195
same,A1BG-AS1 logFC MIA PaCa-2,[3]; 6 h,-0.914
same,A2LD1 logFC MIA PaCa-2,[3]; 6 h,-0.1941
same,A4GALT logFC MIA PaCa-2,[3]; 6 h,-0.8586
same,1/2-SBSRNA4 logFC MIA PaCa-2,[3]; 24 h,-0.5295
same,A1BG logFC MIA PaCa-2,[3]; 24 h,0.6604
same,A1BG-AS1 logFC MIA PaCa-2,[3]; 24 h,-0.1194
same,A2LD1 logFC MIA PaCa-2,[3]; 24 h,-0.3751
same,A4GALT logFC MIA PaCa-2,[3]; 24 h,-0.2021
